This note sets out measurements from US20260092919A1, “REAGENT FOR MEASURING TYROSINE KINASE ACTIVITY, AND USE THEREOF” (HILO CO. LTD., priority 2022, published 2026).

The subject of assay [1] is EGFR tyrosine kinase activity. Kind of assay: FRET efficiency (FRET/CFP) time-lapse imaging in Cos-1 cells expressing biosensor. The class given is cell-based, African green monkey.
Protocol: (§1) Fluorescence images of cells were acquired using an IX81 research-grade inverted microscope (Olympus) equipped with a stage incubator (LCI), a motorized XY-stage (Chuo Precision Industrial), and a CoolSNAP Myo cooled charge-coupled device (CCD) camera (Nippon Roper) under the control of MetaMorph software (Molecular Devices Japan). […] White light from a SOLA light engine (Lumencore) was attenuated by a 20% neutral density filter and used as excitation light after interference by each filter. Images were captured using a 60× oil immersion objective lens (numerical aperture 1.40) (4×4 binning, fluorescence images: exposure time 200 msec, differential interference contrast images: exposure time 20 msec).
(§2) After 24 hours, the medium was changed to phenol red-free MEM-F12 medium, and the cells were serum-starved for 4 hours. Time-lapse fluorescence imaging was then initiated, with FRET, CFP, and DIC images acquired every 30 seconds. Cells were stimulated by adding EGF to a final concentration of 50 ng/ml at 10 minutes after starting imaging, and imaging was continued for another 50 minutes. Following background subtraction, FRET efficiency was calculated as the ratio of cellular fluorescence intensity (FRET/CFP) from each channel at each time point.
In assay [2] the test system is EGFR tyrosine kinase activity in H1299 cells. Kind of assay: FRET efficiency in H1299 cells expressing Pickles_2.34NES.
Protocol: as §1, §2
Assay [3] concerns the target EGFR tyrosine kinase activity in HCC827 cells (Homo sapiens, UniProt P00533, DEL746-750). Put plainly: FRET efficiency in HCC827 cells expressing Pickles biosensor.
Protocol: as §1, §2
For assay [4], the target named is T1, EGFR tyrosine kinase activity in A549 cells (Homo sapiens, UniProt P00533).
T1 construct: pFX-Pickles_2.34NES was introduced into A549 cells and H1299 cells; endogenous in cells; host or cells: A549
Kind of assay: FRET efficiency in A549 cells expressing Pickles_2.34NES. The format is cell-based.
Protocol: as §1, §2

“Pickles_2.34: SEQ ID NO: 6: m1Venus, CrkL residues 1-222 with D94A, cp173-ECFP FRET biosensor”: the “change in FRET efficiency with HGF stimulation” value in assay [1] (Cos-1 cells expressing Pickles, HGF instead of EGF, same amount) is “did not change”. Moreover, in assay [1] (Cos-1 cells expressing the biosensor, EGF 50 ng/ml), the “increase in FRET efficiency upon EGF stimulation” value is on record as 77.7%.
“Pickles_2.34NES: SEQ ID NO: 7: Pickles_2.34 with the NES from protein kinase A inhibitor added to its N-terminus”: in assay [2], the “increase in FRET efficiency upon EGF stimulation” value is given as “slight”. For the same substance, the “response of FRET efficiency to EGF stimulation compared to Pickles_2.34” value in assay [3] is “higher sensitivity”. Further, the “change in FRET efficiency upon EGF stimulation” value in assay [4] is given as “increased significantly”.
